Assay results taken from US5876948A (priority 1991, dated 1999).
Peptide text beside a SMILES is read from it.

Assays:
hippocampal neurons [1] = format: cell-based, rat
hippocampal neurons [2] = format: cell-based, rat; remark: listed apart in the source
hippocampal neurons [3] = format: cell-based, rat; remark: listed apart in the source
hippocampal neurons [4] = format: cell-based, rat; remark: listed apart in the source
[5] = system: primary hippocampal neurons; experiment: Block of β1-40 neuronal toxicity by Substance P and analogs (therapeutic efficacy); format: cell-based, rat
[6] = in vivo; cited from earlier work

Molecule | reversal of early trophic response to β1-40 (hippocampal neurons [1]) | reversal of late toxic response to β1-40 (hippocampal neurons [2]) | % Trophic Response (hippocampal neurons [3]) | neurotrophic activity / early neuronal survival (in words) (hippocampal neurons [3]) | % Toxic Response (hippocampal neurons [4]) | neurotoxic activity / late neuronal survival (in words) (hippocampal neurons [4]) | Therapeutic Efficacy (%): ability to block neuronal toxicity of β1-40 [5] [%] | further results
CSCC[C@H](NC(=O)[C@H](CC(C)C)NC(=O)CNC(=O)[C@@H](NC(=O)[C@H](Cc1ccccc1)NC(=O)[C@H](CCC(N)=O)NC(=O)[C@H](CC(=O)O)NC(=O)[C@H](CO)NC(=O)[C@H](CCCCN)NC(=O)[C@@H]1CCCN1C(=O)[C@@H](NC(=O)[C@@H](N)CC(=O)O)C(C)C)C(C)C)C(N)=O [kassinin] (H-DVPKSDQFVGLM-NH2) | did not show significant effects | did not show significant effects |  |  |  |  |  | 
CSCC[C@H](NC(=O)[C@H](CC(C)C)NC(=O)CNC(=O)[C@H](Cc1ccc(O)cc1)NC(=O)[C@H](Cc1ccccc1)NC(=O)[C@H](CCCCN)NC(=O)[C@H](CC(N)=O)NC(=O)[C@@H]1CCCN1C(=O)[C@H](CC(=O)O)NC(=O)[C@H](C)NC(=O)[C@@H]1CCC(=O)N1)C(N)=O [Physalaemin] (HELM PEPTIDE1{[Glp].A.D.P.N.K.F.Y.G.L.M.[am]}$$$$V2.0) | almost completely reversed | almost completely reversed | 0 ± 4% | no effect on early or late neuronal survival | 0 ± 7% | no effect on early or late neuronal survival |  | 
Sub P, Methyl Ester |  |  |  |  |  |  | 71 | 
CSCC[C@H](NC(=O)[C@H](CC(C)C)NC(=O)CNC(=O)[C@H](Cc1ccccc1)N(C)C(=O)[C@H](Cc1ccccc1)NC(=O)[C@H](CC(=O)O)NC(=O)CCC(=O)O)C(N)=O [[Succinyl-Asp^6, Me-Phe^8]-Sub P (6-11)] (HELM PEPTIDE1{[O=C(O)CCC(=O)[*:2]].D.F.[meF].G.L.M.[am]}$$$$V2.0) |  |  |  |  |  |  | 47 | 
CC(C)C[C@H](NC(=O)[C@H](CC(C)C)NC(=O)[C@@H](Cc1c[nH]c2ccccc12)NC(=O)[C@H](Cc1ccccc1)NC(=O)[C@@H](Cc1c[nH]c2ccccc12)NC(=O)[C@H](CCC(N)=O)NC(=O)[C@H](CCC(N)=O)NC(=O)[C@@H]1CCCN1C(=O)[C@H](CCCCN)NC(=O)[C@@H]1CCCN1C(=O)[C@H](N)CCCNC(=N)N)C(N)=O [spantide, [D-Arg^1, D-Trp^7,9, Leu^11]-substance P] (HELM PEPTIDE1{[dR].P.K.P.Q.Q.[dW].F.[dW].L.L.[am]}$$$$V2.0) |  |  | 120 ± 8% | significant early neurotrophic and late neurotoxic effects | 118 ± 10% | significant early neurotrophic and late neurotoxic effects |  | 
CC[C@H](C)[C@H](NC(=O)[C@H](Cc1ccccc1)NC(=O)[C@H](C)NC(=O)[C@H](CC(=O)O)NC(=O)[C@H](CCCCN)NC(=O)[C@H](CO)NC(=O)[C@@H]1CCCN1C(=O)[C@@H]1CCC(=O)N1)C(=O)NCC(=O)N[C@@H](CC(C)C)C(=O)N[C@@H](CCSC)C(N)=O [Eledoisin] (HELM PEPTIDE1{[Glp].P.S.K.D.A.F.I.G.L.M.[am]}$$$$V2.0) | did not show significant effects | did not show significant effects | 0 ± 11 | no effect on early or late neuronal survival | 0 ± 6 | no effect on early or late neuronal survival |  | 
Sub P, Free Acid |  |  |  |  |  |  | 53 | 
CSCC[C@H](NC(=O)[C@H](CC(C)C)NC(=O)CNC(=O)[C@H](Cc1ccccc1)NC(=O)[C@H](Cc1ccccc1)NC(=O)[C@H](CCC(N)=O)NC(=O)[C@H](CCC(N)=O)NC(=O)[C@@H]1CCCN1C(=O)[C@H](CCCCN)NC(=O)[C@@H]1CCCN1C(=O)[C@@H](N)CCCN=C(N)N)C(N)=O [Substance P] |  |  |  |  |  |  |  | crossing of the blood-brain barrier [6]: known to cross the blood-brain barrier
